Measured values: US6881719B2, “β-turn peptidomimetic cyclic compounds” (McGill University, priority 2000, dated 2005)

What was measured:
[1] = tested on: B104 cells (p75+ TrkA-); assay: FACScan binding of D3-biotin to B104 cells; design: species or system rat; conditions: D3-biotin 20 μM + D3 200 μM as competitor
[2] = target: T1, HEK 293 cells expressing TrkB/TrkA IgG-C2 chimeric receptor (Homo sapiens, UniProt P04629+Q16620); assay: Cell survival (MTT), HEK 293-TrkB/TrkA IgG-C2 chimera; format: cell-based; conditions: HEK 293-TrkB/TrkA chimera, 72 hours;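 as to % Protection: 100% equals survival with optimal NGF at 1 nM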
T1 construct: The IgG-C2 domain of human TrkA was generated using unique restriction sites; expressed in transfected cells
Source text: The IgG-C2 domain of human TrkA was generated using unique restriction sites in the primers to allow exchange with the corresponding rat TrkB domain. The chimeric receptors were constructed by subcloning the human TrkA IgG-C2 domain into the corresponding restriction sites of the rat trkB cDNA reported in a previous work (Perez et al., 1995). Chimeric constructs were confirmed by sequencing, and were cloned into the pCDNA3 expression vector that contains a selection gene providing resistance to neomycin (G418, GIBCO). HEK293 cells were transfected using the lipofectamine plus method (GIBCO), selected with neomycin (0.5 mg/ml) and at least 3 independent subclones were obtained by limiting dilution techniques (293-TrkB/A-IgC2 chimera).
(§1) Cell lines: 5,000 cells/well in protein-free media (PFHM-II, GIBCO, Toronto) containing 0.2% bovine serum albumin (BSA) (Crystalline fraction V, Sigma, St. Louis, Mo.) were seeded in 96 well plates (Falcon, Mississauga, Ontario). The cultures were untreated, or treated with the indicated test or control ligands. Cell viability was quantitated using the MTT assay after 56-72 hours of culture. […] The OD of untreated cells were subtracted.

[3] = tested on: TrkB-expressing HEK293 cells; assay: Cell survival control, TrkB-expressing HEK293 cells; format: cell-based
Experimental: as §1, with “subtracted. The higher optical density of untreated primary cultures is likely due to cellular heterogeneity and to endogenous production of limiting amounts of growth factors.” for “subtracted.”

T1 sequence (P04629 299-365 limits assumed, change not shown, one chain of several): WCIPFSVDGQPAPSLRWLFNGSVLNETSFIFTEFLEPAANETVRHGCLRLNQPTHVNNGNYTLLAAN

What does the source list for `NCCCC[C@@H]1NC(=O)[C@H](CCC(=O)O)NC(=O)c2cc([N+](=O)[O-])ccc2OCCC(C(=O)NCC(=O)O)NC1=O` (stereo partly drawn) [D3, EKHse-G-OH]?
MCF (mean channel fluorescence) [1]: 11 ± 2; % Protection ([2]; compound 10 μM + 10 pM NGF): 42 ± 5%; Optical Density ([2]; compound 10 μM + 10 pM NGF): 165 ± 11; % Protection ([2]; compound 10 μM alone): 9 ± 3%; Optical Density ([2]; compound 10 μM alone): 69 ± 7; protection from apoptosis [3]: neither D3 nor NGF protected
